Results as given in patent US11241440B2, “Dihydrooxadiazine compounds for treating infections and cancer” (VALORALIA I MÁS D, SL, priority 2016, dated 2022).

Assays:
[1] = system: Candida parapsilosis; test: EUCAST broth dilution antifungal susceptibility test (MIC); assay type: cell-based; conditions: 50% inhibition, 24 hours at 35° C., dilution range 64 to 0.12 mg/l
Method: (§1) Filamentous fungi and yeasts strains, from clinical origin, were supplied by Microbiology Service from The Princess Hospital, Madrid. They are detailed in Table III. Filamentous fungi and yeast cells suspensions in distilled water was prepared from a culture of 24-48 h, depending on species, in Sabouraud agar. Each suspension was adjusted to a fixed size inoculum of 1-5×10^8 CFU/ml with a spectrophotometer (Ferraro, M J National Committee for Clinical Laboratory Standards. 2000). Antifungal susceptibility tests were developed following the standardized methodology detailed by the European Committee on Antimicrobial Susceptibility Testing (EUCAST) documents 7.2 (method for the determination of broth dilution minimum inhibitory concentrations of antifungal agents for yeasts EDef 7.2) and 9.2 (Method for the determination of broth dilution minimum inhibitory concentrations of antifungal agents for conidia forming foulds). The compound was dissolved in DMSO and diluted with RPMI plates with 2% glucose to pH 7 with MOPS buffer. […] Plates were inoculated with a yeast suspension or filamentous fungal spores (1-5×10^5 cls/ml). The results were evaluated after 24 hours incubation at 35° C. and absorbance reading at 530 nm.

[2] = system: Scedosporium prolificans; test: as above; assay type: cell-based; conditions: 100% inhibition, 24 hours at 35° C., dilution range 64 to 0.12 mg/l
Method: as §1

[3] = system: Aspergillus fumigatus; test: as above; assay type: cell-based; conditions: 100% inhibition, 24 hours at 35° C., dilution range 64 to 0.12 mg/l
Method: as §1

[4] = system: Aspergillus flavus; test: as above; assay type: cell-based; conditions: 100% inhibition, 24 hours at 35° C., dilution range 64 to 0.12 mg/l
Method: as §1

[5] = system: Aspergillus terreus; test: as above; assay type: cell-based; conditions: 100% inhibition, 24 hours at 35° C., dilution range 64 to 0.12 mg/l
Method: as §1

[6] = system: S. epidermidis; test: Kirby-Bauer disk diffusion susceptibility test; assay type: cell-based, Staphylococcus epidermidis; conditions: S. epidermidis; 100 μg/disc; zone of inhibition
[7] = system: all tumor cell lines tested; test: MTT assay, tumor cell lines of Table VII taken together
[8] = system: SK-UT-1; test: MTT assay; assay type: cell-based; conditions: Homo sapiens, 48 hours
[9] = system: N. cyriacigeorgica; test: Kirby-Bauer disk diffusion susceptibility test; assay type: cell-based; conditions: N. cyriacigeorgica; 100 μg/disc; zone of inhibition
[10] = system: CAL33; test: MTT assay; assay type: cell-based
[11] = system: XGF-G (gG-deficient PRV gIS8); assay type: cell-based, porcine pseudorabies virus (PRV)
[12] = system: B. cereus; test: Kirby-Bauer disk diffusion susceptibility test; assay type: cell-based, Bacillus cereus; conditions: B. cereus
[13] = system: HIV virus non-recombinant wild type (NL4.3); test: Inhibition of non-recombinant wild type HIV; assay type: cell-based; conditions: Human immunodeficiency virus 1

Question: `CCCCCC1=NN(C(=O)CCO)OC(CCCCC)C1` (centres unmarked) [Compound, 1-(4,6-dipentyl-5,6-dihydro-2H-1,2,3-oxadiazin-2-yl)-3-hydroxypropan-1-one] was tested. Which “MIC (minimum inhibitory concentration)” value [1] did it give?
Answer: Its value is 0.5.

Question: What about the “MIC (minimum inhibitory concentration)” value [2] of the same compound?
Answer: The value was 0.5.

Question: What about the “MIC (minimum inhibitory concentration)” value [3] of the same compound?
Answer: The value was 0.5.

Question: What about the “MIC (minimum inhibitory concentration)” value [4] of the same compound?
Answer: Its value is 1.

Question: What about the “MIC (minimum inhibitory concentration)” value [5] of the same compound?
Answer: The value was 0.25.

Question: And the “Activity (mm), 100 μg/disc” value [6]?
Answer: Its value is 16-18 mm.

Question: And the antitumoral activity ([7]; all tumor cell lines tested)?
Answer: Its antitumoral activity is “exhibited activity in all tumor cell lines tested”.

Question: What about the “concentration at which inhibition began to be relevant” value ([7]; rest of the cell lines (other than CAL33 and T98G)) of the same compound?
Answer: Its value is 100 nM.

Question: And the IC50 [8]?
Answer: The IC50 was 199 nM.

Question: What about the “Activity (mm), 100 μg/disc” value [9] of the same compound?
Answer: Its value is 35-38 mm.

Question: What about the “concentration at which inhibition is obtained” value [10] of the same compound?
Answer: The value was 10 nM.

Question: And the “optimal concentration of inhibition” value [10]?
Answer: The value was at least 50 nM.

Question: What about the IC50 ([10]; Homo sapiens, CAL-33, 48 hours) of the same compound?
Answer: Its IC50 is 42.8 nM.

Question: And the “reduction of the titer” value [11]?
Answer: Its value is 0.7 logarithms.

Question: What about the “kind of antibiotic activity” value [12] of the same compound?
Answer: The value was “bacteriostatic”.

Question: And the “Activity (mm), 100 μg/disc” value ([12]; 100 μg/disc, zone of inhibition)?
Answer: The value was 37-40 mm.

Question: And the IC50 [13]?
Answer: The IC50 was 333 nM.
